Test results as given in patent US20230331739A1, “INDOLO HEPTAMYL OXIME ANALOG CRYSTAL AS PARP INHIBITOR AND METHOD FOR PREPARING SAME” (CHIA TAI TIANQING PHARMACEUTICAL GROUP CO., LTD., priority 2020, published 2023).
Read-outs that look alike come from different tables or passages of the source.

Assays:
[1] = Body weight change in the MDA-MB-436 xenograft study; type: in vivo; details: three dose groups (12.5, 25, 50 mg/kg PO QD)
Description: 3. Daily observation of animals: the animals were monitored daily for health and death, and routine examinations include observation of the effect on tumor growth and the therapy on the daily performance of the animals, such as behavioral activities, food and water intake, change in body weight, appearance, or other abnormal conditions.
1. The body weights of the animals were used as a reference index for indirectly measuring the toxicity of the drug. In this model, no other morbidity or mortality occurred during the study.

[2] = Protein binding rate in plasma (equilibrium dialysis), human; type: in vitro ADME; details: 4 h dialysis
Procedure: (§1) The protein binding rates of the compound disclosed herein in plasma of human, CD-1 mice and SD rats were determined. 796 μL of blank plasma was taken from human, CD-1 mice or SD rats, and 4 μL of test compound working solution (400 μM) or warfarin working solution (400 μM) was added to achieve a final concentration of 2 μM of both the test compound and the warfarin in the plasma sample. The samples were mixed well. The final concentration of organic phase DMSO was 0.5%; 50 μL of test compound and warfarin plasma sample was pipetted into a sample receiving plate (in triplicate), and a corresponding volume of blank plasma or buffer was immediately added such that the final volume in each sample well was 100 μL. The volume ratio of plasma to dialysis buffer was 1:1. […] All samples were subjected to LC/MS analysis after protein precipitation, and the protein binding rates and the recovery rates were calculated by the following formulas: protein unbinding rate (%)=100× drug concentration passing through dialysis membrane/drug concentration not passing through dialysate; protein binding rate (%)=100−protein unbinding rate (%); recovery rate (%)=100×(drug concentration passing through dialysis membrane+drug concentration not passing through dialysate)/total drug concentration before dialysis.

[3] = Single-dose pharmacokinetic study in mice; type: in vivo, male C57BL/6 mice
Procedure: Objectives: To evaluate the pharmacokinetic behavior in male C57BL/6 mice and to determine the drug concentrations of the compound in the plasma, liver and cerebrospinal fluid after a single dose.
Procedures: Healthy adult male C57BL/6 mice were selected for intragastric administration. The candidate compound was mixed with an appropriate amount of 10% DMSO/90% (20% hydroxypropyl-@-cyclodextrin), vortexed and sonicated to prepare a 0.5 mg/mL clear solution for later use. After the mice were administered intravenously at 1 mg/kg and orally at 5 mg/kg, whole blood was collected at certain time points. Plasma was separated, and liver and cerebrospinal fluid were collected. After pretreatment of the samples, the drug concentration was measured by LC-MS/MS, and pharmacokinetic parameters were calculated using Phoenix WinNonlin software.

[4] = Metabolic stability in liver microsomes, human; type: in vitro ADME; details: 1 μM, 0.5 mg/mL
Procedure: Objective: To test the metabolic stability of the test compound in liver microsomes of three species.
Procedures: 1 μM test compound and microsomes (0.5 mg/mL) were incubated at 37° C. in the presence of an NADPH regeneration system. Positive controls were testosterone ([…]), propylamine propiophenone (2D6 substrate) and diclofenac (2C9 substrate). At 37° C., positive controls were incubated with microsomes (0.5 mg/mL) in the presence of an NADPH regeneration system. The reaction was stopped by direct mixing of the sample with cold acetonitrile containing an internal standard at various time points (0, 5, 10, 20, 30 and 60 min). The compound and microsomes were incubated for 60 min in the absence of an NADPH regeneration system. One replicate (n=1) was set at each time point. The samples were analyzed by LC/MS/MS; the concentration of the compound was characterized by the ratio of the analyte peak area to the internal standard peak area.

[5] = Protein binding rate in plasma (equilibrium dialysis), SD rat; type: in vitro ADME; details: 4 h dialysis
Procedure: as §1

[6] = male, C57BL/6, mouse, plasma, IV: 1 mg/kg PO: 5 mg/kg

## C[C@]1(c2ccc(-c3[nH]c4cc(F)cc5c4c3CONC5=O)cc2)CCCN1 [Compound 1]
[1]
  change in body weight: little change in body weight
[2]
  fraction unbound at 4 h, 2 μM: 0.149
[3]; IV: 1 mg/kg PO: 5 mg/kg
  Maximum concentration: 240 nM
[3]; male, C57BL/6, mouse, plasma, IV 1 mg/kg, read-out: AUC0-last (intravenous injection)
  AUC(0-t): 0.958 µM·h
[3]; [6]
  bioavailability: 24.8%
  half-life: 3.02 h
[3]; male, C57BL/6, mouse, plasma, IV: 1 mg/kg PO: 5 mg/kg, read-out: Apparent volume of distribution
  Vd: 9.44 L/kg
[3]; male, C57BL/6, mouse, plasma, IV: 1 mg/kg PO: 5 mg/kg, read-out: Clearance rate
  clearance: 41 mL/min/kg
[3]; male, C57BL/6, mouse, plasma, PO 5 mg/kg, read-out: AUC0-last (oral)
  AUC(0-t): 1.19 µM·h
[4]
  Residual content after 60 min of incubation: 35.9%
[5]
  fraction unbound at 4 h, 2 μM: 0.077
